In PMC12876990, “Targeting secreted PLA2 interactions with EGFR and vimentin to arrest prostate tumour growth” (Cell Death & Disease, 2025):
Square brackets hold non-standard residues; d marks the D form. Peptide text beside a SMILES is read from it. 2Nal = N[C@@H](Cc1ccc2ccccc2c1)C(=O)O

Key:
[1] = 28-day oral toxicity study: biochemistry analysis; format: in vivo, male Sprague Dawley rats
Protocol: Blood analyse s (haematology and biochemistry) w ere performed on all animals on Day 29 (main groups) or Day 43 (recovery groups). Approximately 4 mL of blood was taken from ea ch animal by cardiac puncture using a 10 mL syringe and 21-gauge needle. The procedure involved anaesthetising by intraperitoneal injection of sodi um pentobarbitone using a 2 mL sterile plastic syringe attached to a 26-gauge needle (Terumo).
For each blood sampling, the blood was divided into two aliquots: (i) one was placed into a tube containing EDTA (for whole blood and EDTA plasma), (ii) one aliquot into a Li-heparin tube. […]
Results and methods of analysis were attached in an appendix to the report (Appendix D Haematology and Biochemistry). Blood smear s for cell morphology were prepared. […]
3.9.2. Biochemistry analysis
The following parameters were analysed: glucose (Glu), urea, creatinine (Creat), total protein (TP), albumin (ALB), albumin/globulin ratio (A:G), total bilirubin (TBil), alkaline phosphatase (ALP), aspartate aminotransferase (AST), alanine aminotransferase (ALT), creatine kinase (CK), chole sterol (Chol), calcium (Ca), phosphate (Phos), Ca:P ratio, sodium (Na), potassium (K), Na:K ratio, chloride (Cl), globulin (Glob), gamma glutamyl transferase (GGT) and triglycerides (Trig).
Haematology and Biochemistry). […]
(Appendix C Study Data Spreadsheets). […]

[2] = Toxicity and serum enzyme levels in PCa xenograft model mice; format: in vivo
Protocol: Fig. 1 Derived from the structure of hGIIA, cF and c2 are orally absorbed, cell permeable and non-toxic. a Structure of hGIIA showing disulphide bonds (yellow) and the location of the peptide sequence ^70FLSYK^74 (cyan), which was cyclised to produce pentapeptide cF, then modified to produce c2. b Plasma concentrations of tritiated cF (red) and c2 (blue) following subcutaneous (sc) administration (circles) or oral (po) administration (squares) at 5 mg/kg to BALB/c mice (mean ± SE, n = 4 per time point). Tissue concentrations of c cF and d c2 following sc administration determined in the liver (blue) and kidney (brown) (mean ± SE). Dashed lines indicate estimated background levels of tritium in tissues due to tissue blood content (10% of peak plasma concentration). e–i Following po administration of c2 at 100 mg/kg to male rats (n = 5 per group), levels of c2 were measured in e plasma, f kidney, g faeces, h urine and i liver at timepoints indicated via LCMS/MS (mean ± SE). j Serum enzyme levels of markers of kidney function (creatinine), liver damage (AST and ALT) and heart damage (CK) in PCa xenograft model mice in response to treatment with vehicle (po, 3 x weekly for 6.1 ± 1.6 weeks), cF (10 mg/kg, po, 3 x weekly for 5.4 ± 0.9 weeks) or c2 (10 mg/kg, po, 3 x weekly for 4.8 ± 0.8 weeks) (n = 4, mean ± SE). Data were obtained by the South Eastern Area Laboratory Services Pathology Laboratory at Prince of Wales Hospital, Randwick, Australia. k PCa cell lines LNCaP, PC-3, and DU145 cells incubated with 100 µM c2 (green) for 24 hours with DAPI (blue), scale bar 10 µm (representative cells of n = 3 biological replicates, 5 cells per replicate).
A key failing of previous enzymatic inhibitors of hGIIA was toxicity, resulting in increased incidence of myocardial infarction in a phase III clinical trial. Thus, the toxicity profile of novel hGIIA inhibitors is critically important in evaluating new inhibitors. […] Extensive histopathology was performed on all animals in the control and high dose groups sacrificed on day 29, with no difference observed between the treated groups and the vehicle control group by any measure. […] In light of the toxicity associated with the myocardial infarction study, data from this c2 toxicity study relevant to heart toxicity are shown in Table 1. Heart wet weight was not affected by either low or high dose relative to vehicle, indicating the compound has no significant pro-hypertrophy effect at these doses. The lack of effect of c2 on gross necropsy or histopathology scores also supports the preclinical safety of the compound in the heart. Importantly, c2 has no effect on serum potassium levels or the Na/K ratio, since hypokalemia (low potassium) is highly arrythmogenic. […] It is of interest also that serum alanine transaminase is unaffected by c2 at the doses tested, since this marker was raised three-fold over the normal range in 6.3-fold more patients on varespladib than placebo in the VISTA acute coronary syndrome trial of this sPLA2 inhibitor [13].

[3] = Day 43, Gr 5 recovery, 20 mg/kg

Q: Which results are given for `CC(C)C[C@@H]1NC(=O)[C@H](Cc2ccc3ccccc3c2)NC(=O)[C@H](CCCNC(=N)N)NC(=O)[C@H](Cc2ccc3ccccc3c2)NC(=O)[C@H](CO)NC1=O` [c2, cyclo-((2-Nal)-Leu-Ser-(2-Nal)-Arg)] (cyclo([2Nal]LS[2Nal]R))?
A: ALT (serum alanine transaminase) ([1]; 1 mg/kg): 61.1 ± 15.53 IU/L; CK (serum creatine kinase) ([1]; 1 mg/kg): 164 ± 47.4 IU/L; K (serum potassium) ([1]; 1 mg/kg): 3.59 ± 0.137 mM; Na/K ratio ([1]; 1 mg/kg): 40.5 ± 1.59; ALT (serum alanine transaminase) ([1]; 20 mg/kg): 64.7 ± 19.01 IU/L; CK (serum creatine kinase) ([1]; 20 mg/kg): 140 ± 34.4 IU/L; K (serum potassium) ([1]; 20 mg/kg): 3.66 ± 0.295 mM; Na/K ratio ([1]; 20 mg/kg): 39.9 ± 3.16; ALP ([1]; Day 29, Gr 2, 1 mg/kg): 219 ± 37.4 IU/L; AST ([1]; Day 29, Gr 2, 1 mg/kg): 173 ± 69.4 IU/L; CK ([1]; Day 29, Gr 2, 1 mg/kg): 164 ± 47.4 IU/L; Na ([1]; Day 29, Gr 2, 1 mg/kg): 145 ± 0.7 mmol/L; ALP ([1]; Day 29, Gr 3, 20 mg/kg): 234 ± 35.7 IU/L; ALT ([1]; Day 29, Gr 3, 20 mg/kg): 64.7 ± 19.01 IU/L; AST ([1]; Day 29, Gr 3, 20 mg/kg): 163 ± 76.8 IU/L; CK ([1]; Day 29, Gr 3, 20 mg/kg): 140 ± 34.4 IU/L; Na ([1]; Day 29, Gr 3, 20 mg/kg): 145 ± 0.8 mmol/L; ALP [1, 3]: 144 ± 24.2 IU/L; ALT [1, 3]: 62 ± 20.2 IU/L; AST [1, 3]: 236 ± 106.7 IU/L; CK [1, 3]: 117 ± 36.0 IU/L; Na [1, 3]: 144 ± 0.4 mmol/L; TP [1, 3]: 62 ± 1.7 g/L; Cl ([1]; rat, in vivo, 1 mg/kg): 101 ± 1.2 mmol/L; serum creatinine, aspartate aminotransferase, alanine aminotransferase, creatine kinase levels ([2]; 10 mg/kg po thrice weekly): no significant changes; damage to organs ([2]; 10 mg/kg thrice weekly for 10 weeks): no observable damage to organs; gross toxicity ([2]; max dosages of 10 mg/kg thrice weekly for 10 weeks): No gross toxicity
